Experimental data from patent publication US9693997B2, “Antiviral compounds” (priority 2013, dated 2017).
Counter-ions that a name gives are not always drawn.

What was measured:
[1] = system: pseudotyped VSV G particles (VSVpp) in Huh7-high CD81 cells; assay: microbe, parasite or virus in culture; assay type: cell-based, vesicular stomatitis virus; settings: Vesicular stomatitis virus, 72 h, read-out: VSVpp (EC50, μM)
[2] = system: Pseudotyped HCV GT1b particles (HCVpp), entry into Huh7-high CD81 cells; assay: microbe, parasite or virus in culture; assay type: cell-based, HCV GT1b Con1 strain; settings: Hepatitis C virus, GT1B, 72 h, read-out: HCVpp GT-1b (EC50, μM)

Row | SMILES | EC50 [1] [µM] | EC50 [2] [µM]
1 | CS(=O)(=O)c1ccc(-c2ccc(Nc3n[nH]c(N)n3)cc2C(F)(F)F)cc1 [Compound 90, N3-(4′-(methylsulfonyl)-2-(trifluoromethyl)biphenyl-4-yl)-1H-1,2,4-triazole-3,5-diamine] | 15.7 | 0.875
2 | Nc1nc(Nc2cc(Cl)c(-c3cccc(C(F)(F)F)c3)c(Cl)c2)n[nH]1 [Compound 108, N-3-(2,6-Dichloro-3′-trifluoromethyl-biphenyl-4-yl)-1H-[1,2,4]triazole-3,5-diamine] | 29 | 0.014
3 | Nc1nc(Nc2cc(Cl)c(-c3cccc(Cl)c3Cl)c(Cl)c2)n[nH]1 [Compound 109, N-3-(2,6,2′,3′-Tetrachloro-biphenyl-4-yl)-1H-[1,2,4]triazole-3,5-diamine] | 46.5 | 0.74
4 | COC(=O)c1ccc(-c2c(Cl)cc(Nc3n[nH]c(N)n3)cc2Cl)cc1 [Compound 110, 4′-(5-Amino-1H-[1,2,4]triazol-3-ylamino)-2′,6′-dichloro-biphenyl-4-carboxylic acid methyl ester] | 25 | 0.1
5 | CN(C)C(=O)c1ccc(-c2c(Cl)cc(Nc3n[nH]c(N)n3)cc2Cl)cc1 [Compound 113, 4′-(5-Amino-1H-[1,2,4]triazol-3-ylamino)-2′,6′-dichloro-biphenyl-4-carboxylic acid dimethylamide] | 43.2 | 0.079
6 | CNS(=O)(=O)c1cccc(-c2c(Cl)cc(Nc3n[nH]c(N)n3)cc2Cl)c1 [Compound 119, 4′-(5-Amino-1H-[1,2,4]triazol-3-ylamino)-2′,6′-dichloro-biphenyl-3-sulfonic acid methylamide] | 3.94 | 0.046
7 | COc1ccccc1-c1c(Cl)cc(Nc2n[nH]c(N)n2)cc1Cl [Compound 120, N-3-(2,6-Dichloro-2′-methoxy-biphenyl-4-yl)-1H-[1,2,4]triazole-3,5-diamine] | 1.12 | 0.181
8 | CS(=O)(=O)c1ccc(-c2c(Cl)cc(Nc3n[nH]c(N)n3)cc2Cl)cc1F [Compound 121, N-3-(2,6-Dichloro-3′-fluoro-4′-methanesulfonyl-biphenyl-4-yl)-1H-[1,2,4]triazole-3,5-diamine] | 0.08 | 0.068
9 | Nc1nc(Nc2cc(Cl)c(-c3ccc(Cl)cc3Cl)c(Cl)c2)n[nH]1 [Compound 124, N-3-(2,6,2′,4′-Tetrachloro-biphenyl-4-yl)-1H-[1,2,4]triazole-3,5-diamine] | 4.49 | 1.01
10 | CN(CCOc1ccc(-c2c(Cl)cc(Nc3n[nH]c(N)n3)cc2C(F)(F)F)cc1)C(=O)OC(C)(C)C [Compound 125, {2-[4′-(5-Amino-1H-[1,2,4]triazol-3-ylamino)-6′-chloro-2′-trifluoromethyl-biphenyl-4-yloxy]-ethyl}-methyl-carbamic acid tert-butyl ester] | > 10 | 0.096
11 | CNCCOc1ccc(-c2c(Cl)cc(Nc3n[nH]c(N)n3)cc2C(F)(F)F)cc1 [Compound 126, N*3*-[6-Chloro-4′-(2-methylamino-ethoxy)-2-trifluoromethyl-biphenyl-4-yl]-1H-[1,2,4]triazole-3,5-diamine hydrochloride] | > 10 | 0.088
12 | CN1C(C)(C)CC(Sc2ccc(-c3c(Cl)cc(Nc4n[nH]c(N)n4)cc3C(F)(F)F)cc2)CC1(C)C [Compound 127, N*3*-[6-Chloro-4′-(1,2,2,6,6-pentamethyl-piperidin-4-ylsulfanyl)-2-trifluoromethyl-biphenyl-4-yl]-1H-[1,2,4]triazole-3,5-diamine] | 9.69 | 0.144
13 | CN(C(=O)OC(C)(C)C)C(C)(C)COc1ccc(-c2c(Cl)cc(Nc3n[nH]c(N)n3)cc2C(F)(F)F)cc1 [Compound 128, {2-[4′-(5-Amino-1H-[1,2,4]triazol-3-ylamino)-6′-chloro-2′-trifluoromethyl-biphenyl-4-yloxy]-1,1-dimethyl-ethyl}-methyl-carbamic acid tert-butyl ester] | 9.26 | 0.011
14 | CC(C)(C)OC(=O)N1CCCC(Oc2ccc(-c3c(Cl)cc(Nc4n[nH]c(N)n4)cc3C(F)(F)F)cc2)C1 (stereo not drawn) [Compound 129, 3-[4′-(5-Amino-1H-[1,2,4]triazol-3-ylamino)-6′-chloro-2′-trifluoromethyl-biphenyl-4-yloxy]-piperidine-1-carboxylic acid tert-butyl ester] | 9.62 | 0.017
15 | Nc1nc(Nc2cc(Cl)c(-c3ccc(OC4CCCNC4)cc3)c(C(F)(F)F)c2)n[nH]1 (stereo not drawn) [Compound 130, N*3*-[6-Chloro-4′-(piperidin-3-yloxy)-2-trifluoromethyl-biphenyl-4-yl]-1H-[1,2,4]triazole-3,5-diamine hydrochloride] | 8.67 | 0.055
16 | CC(C)(C)CCN1CCCC(Oc2ccc(-c3c(Cl)cc(Nc4n[nH]c(N)n4)cc3C(F)(F)F)cc2)C1 (stereo not drawn) [Compound 131, N*3*-{6-Chloro-4′-[1-(3,3-dimethyl-butyl)-piperidin-3-yloxy]-2-trifluoromethyl-biphenyl-4-yl}-1H-[1,2,4]triazole-3,5-diamine hydrochloride] | 7.02 | 0.095
17 | CN1CCCC(Oc2ccc(-c3c(Cl)cc(Nc4n[nH]c(N)n4)cc3C(F)(F)F)cc2)C1 (stereo not drawn) [Compound 132, N*3*-[6-Chloro-4′-(1-methyl-piperidin-3-yloxy)-2-trifluoromethyl-biphenyl-4-yl]-1H-[1,2,4]triazole-3,5-diamine hydrochloride] | 6.13 | 0.088
18 | Nc1nc(Nc2cc(Cl)c(-c3ccc(OC4CCCN(CCC(F)(F)F)C4)cc3)c(C(F)(F)F)c2)n[nH]1 (stereo not drawn) [Compound 133, N*3*-{6-Chloro-2-trifluoromethyl-4′-[1-(3,3,3-trifluoro-propyl)-piperidin-3-yloxy]-biphenyl-4-yl}-1H-[1,2,4]triazole-3,5-diamine hydrochloride] | > 10 | 0.13
19 | CC(C)(C)OC(=O)NCCOc1ccc(-c2c(Cl)cc(Nc3n[nH]c(N)n3)cc2C(F)(F)F)cc1 [Compound 134, {2-[4′-(5-Amino-1H-[1,2,4]triazol-3-ylamino)-6′-chloro-2′-trifluoromethyl-biphenyl-4-yloxy]-ethyl}-carbamic acid tert-butyl ester] | > 10 | 0.081
20 | NCCOc1ccc(-c2c(Cl)cc(Nc3n[nH]c(N)n3)cc2C(F)(F)F)cc1 [Compound 135, N*3*-[4′-(2-Amino-ethoxy)-6-chloro-2-trifluoromethyl-biphenyl-4-yl]-1H-[1,2,4]-triazole-3,5-diamine hydrochloride] | > 10 | 0.077
21 | CC(C)(C)CCNCCOc1ccc(-c2c(Cl)cc(Nc3n[nH]c(N)n3)cc2C(F)(F)F)cc1 [Compound 136, N*3*-{6-Chloro-4′-[2-(3,3-dimethyl-butylamino)-ethoxy]-2-trifluoromethyl-biphenyl-4-yl}-1H-[1,2,4]triazole-3,5-diamine hydrochloride] | 3.08 | 0.005
22 | CC(C)(C)CCN(CCOc1ccc(-c2c(Cl)cc(Nc3n[nH]c(N)n3)cc2C(F)(F)F)cc1)CCC(C)(C)C [Compound 137, N*3*-(4′-{2-[Bis-(3,3-dimethyl-butyl-amino)-ethoxy}-6-chloro-2-trifluoromethyl-biphenyl-4-yl]-1H-[1,2,4]triazole-3,5-diamine] | > 10 | 0.062
23 | CC(C)(C)OC(=O)N1CCC(Oc2ccc(-c3c(Cl)cc(Nc4n[nH]c(N)n4)cc3C(F)(F)F)cc2)CC1 [Compound 138, 4-[4′-(5-Amino-1H-[1,2,4]triazol-3-ylamino)-6′-chloro-2′-trifluoromethyl-biphenyl-4-yloxy]-piperidine-1-carboxylic acid tert-butyl ester] | > 10 | 0.162
24 | Nc1nc(Nc2cc(Cl)c(-c3ccc(OC4CCNCC4)cc3)c(C(F)(F)F)c2)n[nH]1 [Compound 139, N*3*-[6-Chloro-4′-(piperidin-4-yloxy)-2-trifluoromethyl-biphenyl-4-yl]-1H-[1,2,4]triazole-3,5-diamine hydrochloride] | 5.66 | 0.042
25 | Nc1nc(Nc2cc(Cl)c(-c3ccc(OC4CCN(CCC(F)(F)F)CC4)cc3)c(C(F)(F)F)c2)n[nH]1 [Compound 140, N*3*-{6-Chloro-2-trifluoromethyl-4′-[1-(3,3,3-trifluoro-propyl)-piperidin-4-yloxy]-biphenyl-4-yl}-1H-[1,2,4]triazole-3,5-diamine hydrochloride] | > 10 | 0.111
26 | CS(=O)(=O)CCN1CCC(Oc2ccc(-c3c(Cl)cc(Nc4n[nH]c(N)n4)cc3C(F)(F)F)cc2)CC1 [Compound 141, N*3*-{6-Chloro-4′-[1-(2-methanesulfonyl-ethyl)-piperidin-4-yloxy]-2-trifluoromethyl-biphenyl-4-yl}-1H-[1,2,4]triazole-3,5-diamine hydrochloride] | > 10 | 0.194
27 | CS(=O)(=O)CCCN1CCC(Oc2ccc(-c3c(Cl)cc(Nc4n[nH]c(N)n4)cc3C(F)(F)F)cc2)CC1 [Compound 142, N*3*-{6-Chloro-4′-[1-(3-methanesulfonyl-propyl)-piperidin-4-yloxy]-2-trifluoromethyl-biphenyl-4-yl}-1H-[1,2,4]triazole-3,5-diamine hydrochloride] | > 10 | 0.242
28 | COCCN1CCC(Oc2ccc(-c3c(Cl)cc(Nc4n[nH]c(N)n4)cc3C(F)(F)F)cc2)CC1 [Compound 143, N*3*-{6-Chloro-4′-[1-(2-methoxy-ethyl)-piperidin-4-yloxy]-2-trifluoromethyl-biphenyl-4-yl}-1H-[1,2,4]triazole-3,5-diamine hydrochloride] | 8.98 | 0.231
29 | Nc1nc(Nc2ccc(-c3ccccc3F)c(Cl)c2)n[nH]1 [Compound 146, N*3*-(2-Chloro-2′-fluoro-biphenyl-4-yl)-1H-[1,2,4]triazole-3,5-diamine] | 29.4 | 2.88
30 | Nc1nc(Nc2ccc(-c3ccccc3)c(C(F)(F)F)c2)n[nH]1 [Compound 149, N*3*-(2-Trifluoromethyl-biphenyl-4-yl)-1H-[1,2,4]triazole-3,5-diamine] | 29.2 | 0.581
